The results in this text go back to ChEMBL document CHEMBL1201862, “PubChem BioAssay data set” (2004).

SMILES strings stand for the structures.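 These data come from cells grown in 96-well plates and exposed to compound for 48 hours at five concentrations. The concentration for 50% growth inhibition is given as GI50.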 Activity calls are given as the source filed them. Cut-off read from the data, not from the text of the source: active = GI50 up to about 1.1 µM and inactive = higher.

Among the test systems are 786-0; DU-145; HOP-62; HT-29; KM12; M14; MDA-MB-231; MOLT-4; NCI-H23; OVCAR-4; OVCAR-8; PC-3; RPMI-8226; SF-268; SF-295; SF-539; SK-OV-3; SN12C; SNB-75; SR.
Common to all, as to test: NCI-60 cell line screen, 48 h

As for `CC(=O)NC1=C(OS(=O)(=O)c2ccc(C)cc2)CN(C)C1=O`, the GI50 with 786-0 is 3.79 µM (inactive); with DU-145, 4.2 µM (inactive); in the assay on HOP-62, 2.88 µM (inactive); with HT-29, 4.92 µM (inactive); in the assay with KM12 it was 3.92 µM (inactive); in the assay on M14, 5.04 µM (inactive). For the same compound, the GI50 was 7.82 µM (inactive) with MDA-MB-231; 3.25 µM (inactive) with MOLT-4; 3.72 µM (inactive) in the assay on NCI-H23; 6.27 µM (inactive) with OVCAR-4; 4.22 µM (inactive) in the assay with OVCAR-8; 2.84 µM (inactive) in the assay on PC-3. Besides, the GI50 with RPMI-8226 was 1.59 µM (inactive); in the assay with SF-268 it was 5.04 µM (inactive); with SF-295 it was 4.1 µM (inactive); with SF-539, 2.06 µM (inactive); with SK-OV-3, 7.57 µM (inactive); in the assay on SN12C, 4.37 µM (inactive). For the same compound, the GI50 was 4.31 µM (inactive) in the assay with SNB-75 and 4.6 µM (inactive) in the assay with SR.

For the compound `O=[N+]([O-])/C=C/c1c(Cl)cccc1Cl`, the GI50 with 786-0 is 0.809 µM (active); in the assay with DU-145, 9.06 µM (inactive); with HOP-62, 6.38 µM (inactive); with HT-29, 2.45 µM (inactive); with KM12 it was 1.58 µM (inactive); in the assay with M14, 1.48 µM (inactive). Further, the GI50 with MDA-MB-231 was 1.91 µM (inactive); in the assay on MOLT-4, 1.07 µM (active); with NCI-H23 it was 4.46 µM (inactive); with OVCAR-4, 3.56 µM (inactive); with OVCAR-8 it was 1.4 µM (inactive); in the assay on PC-3, 1.77 µM (inactive). The GI50 is 0.838 µM (active) in the assay on RPMI-8226; 4.32 µM (inactive) in the assay with SF-268; 7.87 µM (inactive) with SF-295; 2.37 µM (inactive) in the assay with SF-539; 20.8 µM (inactive) with SK-OV-3; 1.53 µM (inactive) in the assay with SN12C. Moreover, the GI50 with SNB-75 was 18 µM (inactive); in the assay with SR, 0.933 µM (active).

`CCOC(=O)c1cc2c(ccc3cc(C(=O)OCC)[nH]c32)[nH]1`: the GI50 with 786-0 is 15.6 µM (inactive); in the assay on DU-145 it was 35.2 µM (inactive); in the assay on HOP-62, 21.7 µM (inactive); with KM12 it was 95.1 µM (inactive); in the assay on M14, 23 µM (inactive); in the assay on MDA-MB-231 it was 12.6 µM (inactive). For the same compound, the GI50 in the assay on MOLT-4 was 35.8 µM (inactive); with NCI-H23 it was 27.2 µM (inactive); in the assay on OVCAR-4, 11.4 µM (inactive); in the assay on PC-3, > 100 µM (inactive); in the assay on RPMI-8226 it was 57.1 µM (inactive); with SF-268, 17.1 µM (inactive). The GI50 was 60.7 µM (inactive) in the assay on SF-295; 12.3 µM (inactive) in the assay with SF-539; > 100 µM (inactive) in the assay with SK-OV-3; 25.9 µM (inactive) in the assay with SN12C; 16.8 µM (inactive) in the assay on SNB-75; 17.5 µM (inactive) in the assay on SR.

As for `CCc1cc2c(c3c1CCCC3)CC1(Cc3ccc(C(=O)OC)cc3C1)C2` (configuration not stated), the GI50 is > 100 µM (inactive) with 786-0; > 100 µM (inactive) in the assay on DU-145; > 100 µM (inactive) with HOP-62; 73.8 µM (inactive) in the assay with HT-29; > 100 µM (inactive) in the assay on KM12; > 100 µM (inactive) in the assay on M14. Also, the GI50 in the assay with MDA-MB-231 is > 100 µM (inactive); in the assay on MOLT-4, 35.4 µM (inactive); in the assay on NCI-H23, > 100 µM (inactive); with OVCAR-4, > 100 µM (inactive); in the assay on OVCAR-8, > 100 µM (inactive); in the assay with PC-3, 65 µM (inactive). Besides, the GI50 in the assay with RPMI-8226 is 44.6 µM (inactive); in the assay on SF-268, > 100 µM (inactive); in the assay on SF-295, > 100 µM (inactive); with SF-539, > 100 µM (inactive); in the assay on SK-OV-3, > 100 µM (inactive); in the assay on SN12C it was > 100 µM (inactive). Besides, the results for the GI50 in the assay with SNB-75 and in the assay on SR were > 100 µM (inactive) and 28.9 µM (inactive), respectively.

As for `COc1cc(C[C@@]2(C)[C@@H]3CCC[C@H](CO)[C@@]3(C)CC[C@@H]2C)c(Cl)c(OC)c1`, the GI50 is 15.7 µM (inactive) in the assay on 786-0; 16.4 µM (inactive) with DU-145; 17.1 µM (inactive) in the assay with HOP-62; 13.3 µM (inactive) in the assay on HT-29; 18.2 µM (inactive) in the assay on KM12; 18.3 µM (inactive) in the assay with M14. Besides, the GI50 with MDA-MB-231 is 16.4 µM (inactive); in the assay with MOLT-4, 12.1 µM (inactive); in the assay with NCI-H23, 19.6 µM (inactive); in the assay with OVCAR-4 it was 15.8 µM (inactive); in the assay with OVCAR-8, 16 µM (inactive); in the assay with PC-3, 14.2 µM (inactive). Besides, the GI50 is 20.2 µM (inactive) in the assay with RPMI-8226; 14.9 µM (inactive) with SF-268; 16.3 µM (inactive) in the assay with SF-295; 14.7 µM (inactive) with SF-539; 17.5 µM (inactive) in the assay with SK-OV-3; 15.8 µM (inactive) with SN12C. The results for the GI50 in the assay with SNB-75 and in the assay on SR were 18 µM (inactive) and 16 µM (inactive), respectively.

As for `CSC(=S)OC1CC(n2cnc3c(NC(=O)c4ccccc4)ncnc32)OC1CO[Si](C)(C)C(C)(C)C` (configuration not stated), the GI50 is 13.6 µM (inactive) in the assay with 786-0; 26.9 µM (inactive) in the assay with DU-145; 28.6 µM (inactive) with HOP-62; 9.18 µM (inactive) in the assay with HT-29; 5.6 µM (inactive) in the assay with KM12; 13.9 µM (inactive) in the assay with M14. Further, the GI50 in the assay with MDA-MB-231 was 41.1 µM (inactive); in the assay on MOLT-4 it was 2.03 µM (inactive); in the assay on NCI-H23, 13.2 µM (inactive); in the assay on OVCAR-4 it was 7.57 µM (inactive); with OVCAR-8, 13.3 µM (inactive); with PC-3 it was 5.64 µM (inactive). Also, the GI50 in the assay on RPMI-8226 was 16.3 µM (inactive); with SF-268, 30.7 µM (inactive); with SF-295, 9.82 µM (inactive); in the assay with SF-539, 36.3 µM (inactive); in the assay with SK-OV-3 it was 36.6 µM (inactive); in the assay with SN12C it was 14.4 µM (inactive). For the same compound, the GI50 was 34.1 µM (inactive) in the assay with SNB-75 and 11 µM (inactive) with SR.

`C/C(=C\COc1ccc2ccc(=O)oc2c1)CCC(=O)C(C)(C)O`: the GI50 in the assay with 786-0 is 18.3 µM (inactive); in the assay on DU-145 it was 32.1 µM (inactive); with HOP-62, 44 µM (inactive); with HT-29, 23.2 µM (inactive); in the assay with KM12 it was 18.5 µM (inactive); with M14, 22 µM (inactive). In addition, the GI50 in the assay on MDA-MB-231 is 44 µM (inactive); with MOLT-4, 22.9 µM (inactive); in the assay on NCI-H23, 33 µM (inactive); with OVCAR-4 it was 51.9 µM (inactive); in the assay with OVCAR-8 it was 23.3 µM (inactive); in the assay on PC-3, 53.5 µM (inactive). In addition, the GI50 with RPMI-8226 is 17 µM (inactive); with SF-268 it was 41.8 µM (inactive); with SF-295 it was 38.4 µM (inactive); in the assay with SF-539, 21 µM (inactive); with SK-OV-3, 36 µM (inactive); with SN12C, 24.2 µM (inactive). Further, the GI50 in the assay with SNB-75 is 68.1 µM (inactive); in the assay with SR, 15.3 µM (inactive).

Consider `O=C1C(c2ccc([N+](=O)[O-])cc2)=C(Cl)C(=O)c2c(O)cccc21`, for which the GI50 was 15.5 µM (inactive) in the assay on 786-0; 20.7 µM (inactive) in the assay with DU-145; 34.4 µM (inactive) with HOP-62; 21 µM (inactive) in the assay on HT-29; 25.6 µM (inactive) with KM12; 21 µM (inactive) with M14. The GI50 was 17.1 µM (inactive) in the assay on MDA-MB-231; 3.66 µM (inactive) in the assay on MOLT-4; 18.1 µM (inactive) with NCI-H23; 17.3 µM (inactive) in the assay with OVCAR-4; 27.5 µM (inactive) in the assay with OVCAR-8; 26.1 µM (inactive) in the assay with PC-3. Besides, the GI50 in the assay with RPMI-8226 was 41.3 µM (inactive); with SF-268, 23.1 µM (inactive); in the assay on SF-295, > 54.1 µM (inactive); with SF-539, 20.2 µM (inactive); in the assay on SK-OV-3, 50.8 µM (inactive); with SN12C, 22.3 µM (inactive). Moreover, the values for the GI50 with SNB-75 and in the assay on SR were 35.3 µM (inactive) and > 100 µM (inactive), respectively.

Take `COc1cc([N+](=O)[O-])c(S(=O)(=O)O)cc1-n1nc(-c2ccccc2)n[n+]1-c1cc(S(=O)(=O)[O-])c([N+](=O)[O-])cc1OC`: the GI50 in the assay with 786-0, with DU-145, in the assay with HOP-62, with HT-29, in the assay on KM12 and in the assay on M14 was > 100 µM (inactive) each time. Also, the GI50 in the assay on MDA-MB-231, in the assay on MOLT-4, with NCI-H23, in the assay with OVCAR-4, in the assay with OVCAR-8 and in the assay on PC-3 was > 100 µM (inactive) in each case. The GI50 with RPMI-8226, in the assay with SF-268, in the assay with SF-295, with SF-539, in the assay with SK-OV-3 and in the assay on SN12C was > 100 µM (inactive) each time. For the same compound, the GI50 in the assay on SNB-75 and in the assay on SR was > 100 µM (inactive) each time.

As to `O=S(=O)(O)c1cc(/N=[N+](\[O-])c2cc(S(=O)(=O)O)c3ccccc3c2)cc2ccccc12`, the GI50 was > 100 µM (inactive) with 786-0; 19.5 µM (inactive) in the assay with DU-145; 48 µM (inactive) with HOP-62; > 100 µM (inactive) in the assay on HT-29; > 100 µM (inactive) in the assay with KM12; 35.7 µM (inactive) with M14. Moreover, the GI50 with MDA-MB-231 was > 100 µM (inactive); with NCI-H23, 25.5 µM (inactive); in the assay with OVCAR-4, 20.5 µM (inactive); in the assay on OVCAR-8 it was > 100 µM (inactive); in the assay on PC-3 it was > 100 µM (inactive); in the assay on RPMI-8226, 28.1 µM (inactive). Moreover, the GI50 was > 100 µM (inactive) in the assay with SF-268; 35.6 µM (inactive) in the assay with SF-295; 16.8 µM (inactive) in the assay on SF-539; > 100 µM (inactive) with SK-OV-3; 23.6 µM (inactive) with SN12C; 16.3 µM (inactive) in the assay on SNB-75. For the same compound, in the assay with SR, the GI50 is 38.5 µM (inactive).
